# Data published in ChEMBL document CHEMBL4627395, “Cytotoxic Heptaketides from the Endolichenic Fungus Ulospora bilgramii” (J Nat Prod, 2020).
# pIC50: −log10 of the molar value. Counter-ions that a name gives are not always drawn. Activity calls are given as the source filed them. No cut-off for these calls is given here.
# Legend:
# A549 [1] = assay: Cytotoxicity against human A549 cells incubated for 48 hrs by MTT assay; type: functional, cell-based; settings: A549, 48 h
# MCF7 = assay: Cytotoxicity against human MCF7 cells incubated for 48 hrs by MTT assay; type: functional, cell-based; settings: MCF7, 48 h
# KB = assay: Cytotoxicity against human KB cells incubated for 48 hrs by MTT assay; type: functional, cell-based
# A549 [2] = assay: Induction of cell cycle arrest in human A549 cells assessed as accumulation at G0/G1 phase incubated for 24 hrs by flow cytometry; type: functional, cell-based
# A549 [3] = assay: Induction of cell cycle arrest in human A549 cells assessed as accumulation at G0/G1 phase at 13.6 uM incubated for 24 hrs by flow cytometry (reference value: 55.79%); type: functional
# A549 [4] = assay: Induction of cell cycle arrest in human A549 cells assessed as accumulation at S phase at 13.6 uM incubated for 24 hrs by flow cytometry (reference value: 33.65%); type: functional
# A549 [5] = assay: Induction of cell cycle arrest in human A549 cells assessed as accumulation at G2/M phase at 13.6 uM incubated for 24 hrs by flow cytometry (reference value: 10.38%); type: functional
# A549 [6] = assay: Induction of cell cycle arrest in human A549 cells assessed as accumulation at G0/G1 phase at 1.25 uM incubated for 24 hrs by flow cytometry (reference value: 55.79%); type: functional
# A549 [7] = assay: Induction of cell cycle arrest in human A549 cells assessed as accumulation at S phase at 1.25 uM incubated for 24 hrs by flow cytometry (reference value: 33.65%); type: functional
# A549 [8] = assay: Induction of cell cycle arrest in human A549 cells assessed as accumulation at G2/M phase at 1.25 uM incubated for 24 hrs by flow cytometry (reference value: 10.38%); type: functional
# A549 [9] = assay: Induction of cell cycle arrest in human A549 cells assessed as accumulation at G0/G1 phase at 2.5 uM incubated for 24 hrs by flow cytometry (reference value: 55.79%); type: functional
# A549 [10] = assay: Induction of cell cycle arrest in human A549 cells assessed as accumulation at S phase at 2.5 uM incubated for 24 hrs by flow cytometry (reference value: 33.65%); type: functional
# A549 [11] = assay: Induction of cell cycle arrest in human A549 cells assessed as accumulation at G2/M phase at 2.5 uM incubated for 24 hrs by flow cytometry (reference value: 10.38%); type: functional
# A549 [12] = assay: Induction of cell cycle arrest in human A549 cells assessed as accumulation at G0/G1 phase at 5 uM incubated for 24 hrs by flow cytometry (reference value: 55.79%); type: functional
# A549 [13] = assay: Induction of cell cycle arrest in human A549 cells assessed as accumulation at S phase at 5 uM incubated for 24 hrs by flow cytometry (reference value: 33.65%); type: functional
# A549 [14] = assay: Induction of cell cycle arrest in human A549 cells assessed as accumulation at G2/M phase at 5 uM incubated for 24 hrs by flow cytometry (reference value: 10.38%); type: functional
# A549 [15] = assay: induction of morphological changes in human A549 cells assessed as cell shrinkage at 1.25 to 5 uM incubated for 24 hrs by DAPI-staining based microscopic method; type: functional
# A549 [16] = assay: induction of morphological changes in human A549 cells assessed as appearance of apoptotic bodies at 1.25 to 5 uM incubated for 24 hrs by DAPI-staining based microscopic method; type: functional, cell-based
# A549 [17] = assay: Induction of apoptosis in human A549 cells after 24 hrs by Annexin-V-FITC/propidium iodide staining based flow cytometric method; type: functional, cell-based
# A549 [18] = assay: Induction of apoptosis in human A549 cells assessed as early apoptotic cells at 13.6 uM after 24 hrs by Annexin-V-FITC/propidium iodide staining based flow cytometric method (reference value: 0.56%); type: functional
# A549 [19] = assay: Induction of apoptosis in human A549 cells assessed as late apoptotic cells at 13.6 uM after 24 hrs by Annexin-V-FITC/propidium iodide staining based flow cytometric method (reference value: 1.40%); type: functional
# A549 [20] = assay: Induction of apoptosis in human A549 cells assessed as necrotic cells at 13.6 uM after 24 hrs by Annexin-V-FITC/propidium iodide staining based flow cytometric method (reference value: 1.12%); type: functional
# A549 [21] = assay: Induction of apoptosis in human A549 cells assessed as early apoptotic cells at 1.25 uM after 24 hrs by Annexin-V-FITC/propidium iodide staining based flow cytometric method (reference value: 0.56%); type: functional
# A549 [22] = assay: Induction of apoptosis in human A549 cells assessed as late apoptotic cells at 1.25 uM after 24 hrs by Annexin-V-FITC/propidium iodide staining based flow cytometric method (reference value: 1.40%); type: functional
# A549 [23] = assay: Induction of apoptosis in human A549 cells assessed as necrotic cells at 1.25 uM after 24 hrs by Annexin-V-FITC/propidium iodide staining based flow cytometric method (reference value: 1.12%); type: functional
# A549 [24] = assay: Induction of apoptosis in human A549 cells assessed as early apoptotic cells at 2.5 uM after 24 hrs by Annexin-V-FITC/propidium iodide staining based flow cytometric method (reference value: 0.56%); type: functional
# A549 [25] = assay: Induction of apoptosis in human A549 cells assessed as late apoptotic cells at 2.5 uM after 24 hrs by Annexin-V-FITC/propidium iodide staining based flow cytometric method (reference value: 1.40%); type: functional
# A549 [26] = assay: Induction of apoptosis in human A549 cells assessed as necrotic cells at 2.5 uM after 24 hrs by Annexin-V-FITC/propidium iodide staining based flow cytometric method (reference value: 1.12%); type: functional
# A549 [27] = assay: Induction of apoptosis in human A549 cells assessed as early apoptotic cells at 5 uM after 24 hrs by Annexin-V-FITC/propidium iodide staining based flow cytometric method (reference value: 0.56%); type: functional
# A549 [28] = assay: Induction of apoptosis in human A549 cells assessed as late apoptotic cells at 5 uM after 24 hrs by Annexin-V-FITC/propidium iodide staining based flow cytometric method (reference value: 1.40%); type: functional
# A549 [29] = assay: Induction of apoptosis in human A549 cells assessed as necrotic cells at 5 uM after 24 hrs by Annexin-V-FITC/propidium iodide staining based flow cytometric method (reference value: 1.12%); type: functional
# A549 [30] = assay: Induction of ROS generation in human A549 cells incubated for 24 hrs by DCFH-DA staining-based flow cytometric analysis relative to control; type: functional, cell-based
# A549 [31] = assay: Induction of ROS generation in human A549 cells assessed as increase in fluorescence intensity at 5 uM incubated for 24 hrs by DCFH-DA staining-based flow cytometric analysis relative to control; type: functional
# [32] = molecular target: DNA topoisomerase 2-alpha (Homo sapiens) (UniProt P11388); assay: Inhibition of human topoisomerase-2alpha expressed in baculovirus infected insect cells assessed as reduction in pBR322 DNA relaxation measured after 30 mins by ethidium bromide staining based agarose gel electrophoresis method relative to control
# A549 [33] = assay: Induction of DNA damage in human A549 cells assessed as gammaH2AX accumulation incubated for 24 hrs by DAPI staining based Immunofluorescence method; type: functional, cell-based
# Chain of DNA topoisomerase 2-alpha (Homo sapiens) (P11388 whole entry): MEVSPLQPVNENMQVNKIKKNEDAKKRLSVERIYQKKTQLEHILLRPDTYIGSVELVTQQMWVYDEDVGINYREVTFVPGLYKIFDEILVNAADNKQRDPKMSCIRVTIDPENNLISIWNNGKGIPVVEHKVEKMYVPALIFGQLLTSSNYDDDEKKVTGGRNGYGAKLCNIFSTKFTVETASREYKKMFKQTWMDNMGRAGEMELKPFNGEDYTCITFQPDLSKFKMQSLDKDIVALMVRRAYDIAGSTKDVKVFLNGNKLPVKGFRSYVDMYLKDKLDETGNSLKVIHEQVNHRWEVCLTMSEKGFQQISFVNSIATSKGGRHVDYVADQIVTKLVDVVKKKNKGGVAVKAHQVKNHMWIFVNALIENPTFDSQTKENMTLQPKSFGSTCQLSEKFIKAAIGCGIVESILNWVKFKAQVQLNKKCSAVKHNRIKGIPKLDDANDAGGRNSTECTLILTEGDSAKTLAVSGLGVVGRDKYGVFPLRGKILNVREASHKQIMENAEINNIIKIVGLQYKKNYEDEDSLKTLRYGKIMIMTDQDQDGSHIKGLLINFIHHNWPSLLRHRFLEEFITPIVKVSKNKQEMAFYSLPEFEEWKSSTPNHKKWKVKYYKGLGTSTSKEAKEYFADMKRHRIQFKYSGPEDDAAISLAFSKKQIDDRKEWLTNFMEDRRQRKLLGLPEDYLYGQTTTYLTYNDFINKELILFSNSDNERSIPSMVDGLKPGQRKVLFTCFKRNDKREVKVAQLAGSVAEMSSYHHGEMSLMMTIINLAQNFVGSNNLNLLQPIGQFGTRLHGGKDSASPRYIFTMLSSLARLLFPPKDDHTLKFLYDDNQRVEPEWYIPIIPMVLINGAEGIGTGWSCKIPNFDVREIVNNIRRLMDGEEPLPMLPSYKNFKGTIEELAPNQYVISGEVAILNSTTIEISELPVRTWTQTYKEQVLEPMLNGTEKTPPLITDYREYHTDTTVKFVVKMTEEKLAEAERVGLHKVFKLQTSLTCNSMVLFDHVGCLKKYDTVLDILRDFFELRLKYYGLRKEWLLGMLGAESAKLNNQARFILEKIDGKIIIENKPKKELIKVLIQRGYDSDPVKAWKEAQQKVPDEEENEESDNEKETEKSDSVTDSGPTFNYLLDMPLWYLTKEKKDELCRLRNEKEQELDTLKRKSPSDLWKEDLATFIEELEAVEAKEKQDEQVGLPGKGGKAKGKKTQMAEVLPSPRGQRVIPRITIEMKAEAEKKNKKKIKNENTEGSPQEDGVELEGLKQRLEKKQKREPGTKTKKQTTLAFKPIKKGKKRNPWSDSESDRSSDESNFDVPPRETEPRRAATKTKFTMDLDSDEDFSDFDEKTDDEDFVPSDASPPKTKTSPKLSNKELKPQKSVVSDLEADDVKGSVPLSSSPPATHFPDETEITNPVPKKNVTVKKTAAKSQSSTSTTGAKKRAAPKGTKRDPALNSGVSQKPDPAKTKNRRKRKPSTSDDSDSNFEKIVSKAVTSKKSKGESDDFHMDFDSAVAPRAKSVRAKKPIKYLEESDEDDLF
smiles,measurement,setting,value
COc1cc(O)c2c(c1)[C@@H]1O[C@]3(C)C[C@@H]1[C@@H](CO3)C2=O,pIC50,A549 [1],< 4.40
same,pIC50,MCF7,< 4.40
same,pIC50,KB,< 4.40
COC1=CC(=O)[C@H](O)[C@H](C)C12Oc1cccc3cccc(c13)O2,pIC50,A549 [1],< 4.40
same,pIC50,MCF7,< 4.40
same,pIC50,KB,< 4.40
COc1cc(O)c2c(c1)[C@@H](O)[C@H]1C[C@H](C)OC=C1C2=O,pIC50,A549 [1],< 4.40
same,pIC50,MCF7,< 4.40
same,pIC50,KB,< 4.40
COc1cc(O)c2c(c1)[C@@H](O)[C@@H]1C[C@H](C)OC[C@H]1C2=O,pIC50,A549 [1],< 4.40
same,pIC50,MCF7,< 4.40
same,pIC50,KB,< 4.40
COc1cc(O)c2c(c1)C(=O)C1=C(C2=O)[C@H](OC[C@@H]2C(=O)CC[C@@H]2C)OC(C)=C1,pIC50,A549 [1],5.89
same,pIC50,MCF7,5.89
same,pIC50,KB,5.52
same,Activity,A549 [2],Dose-dependent effect
same,Activity,A549 [3],30.93%
same,Activity,A549 [4],24.26%
same,Activity,A549 [5],44.81%
same,Activity,A549 [6],59.51%
same,Activity,A549 [7],33.31%
same,Activity,A549 [8],7.18%
same,Activity,A549 [9],66.37%
same,Activity,A549 [10],30.07%
same,Activity,A549 [11],3.56%
same,Activity,A549 [12],69.15%
same,Activity,A549 [13],29.74%
same,Activity,A549 [14],1.11%
same,Activity,A549 [15],Active
same,Activity,A549 [16],Active
same,Activity,A549 [17],Dose-dependent effect
same,Activity,A549 [18],6.79%
same,Activity,A549 [19],5.02%
same,Activity,A549 [20],2.15%
same,Activity,A549 [21],0.98%
same,Activity,A549 [22],1.14%
same,Activity,A549 [23],0.73%
same,Activity,A549 [24],0.87%
same,Activity,A549 [25],2.69%
same,Activity,A549 [26],1.3%
same,Activity,A549 [27],1.8%
same,Activity,A549 [28],10.75%
same,Activity,A549 [29],7.75%
same,Activity,A549 [30],Dose-dependent effect
same,fold change (FC),A549 [31],5
same,inhibition,[32],Active
same,Activity,A549 [33],Dose-dependent effect
COc1cccc2c1C(=O)c1c(O)c3c(c(O)c1C2=O)C[C@@](O)(C(=O)CO)C[C@@H]3O[C@H]1C[C@H](N)[C@H](O)[C@H](C)O1 [DOXORUBICIN HYDROCHLORIDE],pIC50,A549 [1],5.30
same,pIC50,MCF7,5.60
same,pIC50,KB,5.66
COc1cc(C)c(Cc2c(C)cc(O)cc2OC)c(O)c1,pIC50,A549 [1],< 4.40
same,pIC50,MCF7,< 4.40
same,pIC50,KB,< 4.40
COc1cc(O)c2c(c1)C(=O)c1c(coc1[C@H](C)O)C2=O,pIC50,A549 [1],< 4.40
same,pIC50,MCF7,< 4.40
same,pIC50,KB,< 4.40
COc1cc(O)c2c(c1)C(=O)C1=C(C2=O)[C@H](OC[C@@H]2C(=O)CC[C@H]2C)OC(C)=C1,pIC50,A549 [1],5.89
same,pIC50,MCF7,5.89
same,pIC50,KB,5.52
same,Activity,A549 [2],Dose-dependent effect
same,Activity,A549 [3],30.93%
same,Activity,A549 [4],24.26%
same,Activity,A549 [5],44.81%
same,Activity,A549 [6],59.51%
same,Activity,A549 [7],33.31%
same,Activity,A549 [8],7.18%
same,Activity,A549 [9],66.37%
same,Activity,A549 [10],30.07%
same,Activity,A549 [11],3.56%
same,Activity,A549 [12],69.15%
same,Activity,A549 [13],29.74%
same,Activity,A549 [14],1.11%
same,Activity,A549 [15],Active
same,Activity,A549 [16],Active
same,Activity,A549 [17],Dose-dependent effect
same,Activity,A549 [18],6.79%
same,Activity,A549 [19],5.02%
same,Activity,A549 [20],2.15%
same,Activity,A549 [21],0.98%
same,Activity,A549 [22],1.14%
same,Activity,A549 [23],0.73%
same,Activity,A549 [24],0.87%
same,Activity,A549 [25],2.69%
same,Activity,A549 [26],1.3%
same,Activity,A549 [27],1.8%
same,Activity,A549 [28],10.75%
same,Activity,A549 [29],7.75%
same,Activity,A549 [30],Dose-dependent effect
same,fold change (FC),A549 [31],5
same,inhibition,[32],Active
same,Activity,A549 [33],Dose-dependent effect
COc1cc(O)c2c(c1)C(=O)c1cc(C)ncc1C2=O,pIC50,A549 [1],< 4.40
same,pIC50,MCF7,< 4.40
same,pIC50,KB,< 4.40
